Legend:
Format in all cases: biochemical
AR-LBD wt = biological target: T1, AR-LBD wt (Homo sapiens, UniProt P10275); experiment: Lanthascreen TR-FRET AR coactivator (D11-FxxLF) assay, AR-LBD wt; settings: for type of AR antagonism (full / partial): TR-FRET in agonist and antagonist mode; for IC50: TR-FRET, D11-FxxLF peptide, DHT = EC80, read-out: Activity (AR wt TR-FRET)
T1 sequence (P10275 669-900 limits assumed): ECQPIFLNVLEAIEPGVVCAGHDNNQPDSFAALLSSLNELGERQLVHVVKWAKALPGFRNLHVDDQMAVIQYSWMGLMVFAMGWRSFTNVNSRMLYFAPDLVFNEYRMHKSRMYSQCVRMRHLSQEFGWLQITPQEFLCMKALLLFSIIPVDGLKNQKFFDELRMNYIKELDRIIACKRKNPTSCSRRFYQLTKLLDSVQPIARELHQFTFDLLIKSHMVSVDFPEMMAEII

[1] = biological target: T2, Glucocorticoid Receptor (GR) LBD (Homo sapiens, UniProt P04150); experiment: TR-FRET SRC1-4 coactivator recruitment assay, GR LBD; settings: Dexamethasone = EC80; for effect on SRC1-4 recruitment by GR LBD: 100 μM to 12.5 μM or single point 100 μM; for IC50: TR-FRET, ± SEM (n = 6), read-out: NR LBDs IC50 (μM) GR
T2 construct: purchased Invitrogen PV4683
T2 sequence (P04150 524-758 limits assumed): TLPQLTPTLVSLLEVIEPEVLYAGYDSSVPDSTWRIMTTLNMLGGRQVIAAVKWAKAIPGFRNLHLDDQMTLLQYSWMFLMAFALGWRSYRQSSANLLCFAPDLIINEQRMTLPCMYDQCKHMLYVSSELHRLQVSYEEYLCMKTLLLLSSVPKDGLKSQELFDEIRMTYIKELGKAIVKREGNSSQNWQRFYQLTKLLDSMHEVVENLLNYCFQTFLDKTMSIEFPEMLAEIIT
Method: (§1) Compound binding affinities for Progesterone Receptor (PR), Glucocorticoid Receptor (GR), Estrogen Receptor alpha and Estrogen Receptor beta were determined using TR-FRET (Table 2).
Dexamethasone bound receptor recruitment of the fluorescently labelled SCR1-4 coactivator was unimpaired at screening concentrations up to 100 μM for all the diarylhydrazides evaluated (FIG. 5).
(§2) Lanthascreen TR-FRET AR Coactivator Assay kit (Invitrogen, cat no. PV4381) was used to screen for potential coactivator disruptors.
(§3) TR FRET values were calculated at 10 flashes per well, using a delay time of 100 μs and integration time 200 μs as recommended by the Invitrogen assay guidelines. […] A serial dilution of compounds was firstly prepared in 100×DMSO (Sigma-Aldrich) starting from the maximum desired concentration to achieve a 12 point range concentration using 96-well polypropylene plates (Nalgene Nunc, Rochester, N.Y.). Each 100× solution was diluted to 2× concentration with TR-FRET co-regulator buffer A (Invitrogen proprietary buffer), yielding a final concentration of 1% DMSO in each well.
(§4) D11-FxxLF and Tb antibody were premixed in light protecting vials prior to use. A final concentration of DTT 5 mM was used in the assay buffer in order to prevent protein degradation. All plates (agonist and antagonist mode) were incubated between 2 and 4 hours at room temperature protected from light prior to TR-FRET measurement. […] Data was fitted using the sigmoidal dose response (variable slope) available from Graphpad Prism 5. Y=Bottom+(Top-Bottom)/(1+10^((Log IC50−X)*HillSlope))
(§5) The same procedure was used for AR T877A (Invitrogen cat no. PV4667), PR (Invitrogen cat no. PV4666), ER-α (Invitrogen cat no. PV4544), ER-β (Invitrogen cat no. PV4541) and GR (Invitrogen cat no. PV4683). The assay was adapted to exclude possible non-specific aggregation mechanism of inhibition by adding very low concentration of detergent Triton X-100 (0.001%) to the assay buffer following the Shoichet review guidelines [Shoichet BK (2006) Screening in a spirit haunted world. Drug Discov Today 11:607-615].

[2] = biological target: T3, Progesterone Receptor (PR) LBD (Homo sapiens, UniProt P06401); experiment: TR-FRET SRC1-4 coactivator recruitment assay, PR LBD; settings: Progesterone = EC80; for IC50: TR-FRET, ± SEM (n = 6), read-out: NR LBDs IC50 (μM) PR; for effect on PR LBD recruitment of fluorescent labelled SRC1-4 coactivator: maximal concentration of 100 μM
T3 construct: purchased Invitrogen PV4666
T3 sequence (P06401 679-913 limits assumed): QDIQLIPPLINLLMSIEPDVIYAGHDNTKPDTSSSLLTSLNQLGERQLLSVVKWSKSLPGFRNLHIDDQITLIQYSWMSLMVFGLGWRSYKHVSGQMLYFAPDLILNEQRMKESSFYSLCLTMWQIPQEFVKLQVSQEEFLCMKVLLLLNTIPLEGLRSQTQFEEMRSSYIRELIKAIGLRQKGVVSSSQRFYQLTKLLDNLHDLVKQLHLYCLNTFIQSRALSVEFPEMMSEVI
Method: as §1, §2, §3, §4, §5

[3] = biological target: T4, Estrogen Receptor alpha (ER-α) LBD (Homo sapiens, UniProt P03372); experiment: TR-FRET PGC1-α coactivator recruitment assay, ERα LBD; settings: Estradiol = EC80; for IC50: TR-FRET, ± SEM (n = 6), read-out: NR LBDs IC50 (μM) ER-α; for effect on ERα LBD recruitment of fluorescent labelled PGC1-α coactivator: maximal concentration of 100 μM
T4 sequence (P03372 311-547 limits assumed): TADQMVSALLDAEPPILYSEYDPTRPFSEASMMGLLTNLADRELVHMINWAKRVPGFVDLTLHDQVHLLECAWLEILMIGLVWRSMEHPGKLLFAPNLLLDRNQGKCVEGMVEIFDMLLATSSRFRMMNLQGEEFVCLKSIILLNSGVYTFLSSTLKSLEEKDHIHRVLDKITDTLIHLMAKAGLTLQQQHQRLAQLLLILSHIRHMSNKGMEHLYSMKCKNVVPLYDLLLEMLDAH
Method: as §1
(§6) Selectivity of the diarylhydrazide scaffold for the AR was determined through a TR-FRET assay in ERα (FIGS. 8A & 9A1) and ERR (FIGS. 8B & 9A2). […] The non-LBP nature of this inhibition was confirmed by a FP assay (FIGS. 9C, 9B1 & 9B2).
as §2, §3, §4, §5

[4] = biological target: Estrogen Receptor beta (ER-β) LBD (Homo sapiens, UniProt Q92731); experiment: TR-FRET PGC1-α coactivator recruitment assay, ERβ LBD; settings: Estradiol = EC80; for IC50: TR-FRET, ± SEM (n = 6), read-out: NR LBDs IC50 (μM) ER-β; for effect on ERβ LBD recruitment of fluorescent labelled PGC1-α coactivator: maximal concentration of 100 μM
Method: as §1, §6, §2, §3, §4, §5

Chain of Estrogen Receptor beta (ER-β) LBD (Q92731 264-498 limits assumed): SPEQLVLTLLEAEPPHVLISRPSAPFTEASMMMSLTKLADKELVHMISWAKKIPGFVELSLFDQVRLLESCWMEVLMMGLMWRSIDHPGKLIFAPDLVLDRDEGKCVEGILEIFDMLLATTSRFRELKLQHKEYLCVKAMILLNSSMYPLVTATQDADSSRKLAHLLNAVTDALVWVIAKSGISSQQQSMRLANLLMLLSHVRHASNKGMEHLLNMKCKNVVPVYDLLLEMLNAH

Compound	type of AR antagonism (full / partial) (AR-LBD wt)	IC50 (AR-LBD wt)	effect on SRC1-4 recruitment by GR LBD [1]	IC50 [1]	IC50 [2]	effect on PR LBD recruitment of fluorescent labelled SRC1-4 coactivator [2]	IC50 [3]	effect on ERα LBD recruitment of fluorescent labelled PGC1-α coactivator [3]	IC50 [4]	effect on ERβ LBD recruitment of fluorescent labelled PGC1-α coactivator [4]	effect on PR recruitment of fluorescent labelled SRC1-4 ([2]; 100 μM to 45 nM)	effect on ERα recruitment of fluorescent labelled PGC1-α ([3]; 100 μM to 45 nM)	effect on ERβ recruitment of fluorescent labelled PGC1-α ([4]; 100 μM to 45 nM)
O=C(N/N=C/c1cccc(Cl)c1)c1cc2ccccc2cc1O [MDG491]	full AR antagonists	42.7 ± 3.5 µM	do not affect	> 100 µM	50 to 100 µM	inhibit	> 100 µM	inhibit	> 100 µM	inhibit	–	–	–
CCCOc1ccc(/C=N/NC(=O)c2cc3c(ccc4ccccc43)o2)cc1 [MDG508]	full AR antagonists	–	do not affect	> 100 µM	5.9 µM	–	4 ± 1.4 µM	–	2.9 µM	–	partially inhibit	partially inhibit	partially inhibit
O=C(N/N=C/c1cc(Cl)ccc1O)c1cc2ccccc2cc1O [MDG605]	full AR antagonists	10.3 ± 1.4 µM	do not affect	> 100 µM	–	inhibit	50 to 100 µM	inhibit	50 to 100 µM	inhibit	–	–	–
O=C(N/N=C/c1ccccc1O)c1cc2ccccc2cc1O [MDG608]	full AR antagonists	55.2 ± 19.2 µM	do not affect	> 100 µM	> 100 µM	inhibit	> 100 µM	inhibit	–	inhibit	–	–	–
O=C(N/N=C/c1cc(O)ccc1O)c1cc2ccccc2cc1O [MDG611]	full AR antagonists	39.9 ± 16.9 µM	do not affect	> 100 µM	–	inhibit	–	inhibit	–	inhibit	–	–	–
COc1ccc(O)c(/C=N/NC(=O)c2cc3ccccc3cc2O)c1 [MDG612]	full AR antagonists	52.9 ± 13.5 µM	do not affect	> 100 µM	50 to 100 µM	inhibit	–	inhibit	–	inhibit	–	–	–
O=C(N/N=C/c1cc([N+](=O)[O-])ccc1O)c1cc2ccccc2cc1O [MDG614]	full AR antagonists	33.4 ± 4.7 µM	do not affect	> 100 µM	–	inhibit	> 100 µM	inhibit	> 100 µM	inhibit	–	–	–
Cc1cccc(/C=N/NC(=O)c2cc3ccccc3cc2O)c1O [MDG616]	full AR antagonists	13.2 ± 2.8 µM	do not affect	> 100 µM	–	inhibit	–	inhibit	–	inhibit	–	–	–
COc1cccc(/C=N/NC(=O)c2cc3ccccc3cc2O)c1O [MDG617]	full AR antagonists	12.2 ± 0.5 µM	do not affect	> 100 µM	–	inhibit	–	inhibit	–	inhibit	–	–	–
COC(=O)c1ccc(O)c(/C=N/NC(=O)c2cc3ccccc3cc2O)c1 [MDG629]	full AR antagonists	60.8 µM	do not affect	> 100 µM	–	inhibit	–	inhibit	–	inhibit	–	–	–
O=C(O)c1ccc(O)c(/C=N/NC(=O)c2cc3ccccc3cc2O)c1 [MDG630]	full AR antagonists	43.5 ± 3.7 µM	do not affect	> 100 µM	–	inhibit	–	inhibit	–	inhibit	–	–	–

Source: patent US9296716B2, “Androgen receptor ligands” (THE PROVOST, FELLOWS, FOUNDATION SCHOLARS, & THE OTHER …, priority 2011, dated 2016)
